In patent publication US4431655A, “2,4-Disubstituted-1,2,5-thiadiazol-3(2H)-one antimicrobials” (Merck & Co., Inc., priority 1982, dated 1984):
Converted amounts (≈) assume the structure as drawn.

Assays:
[1] = Ring stability to hydrolysis, UV absorption changes with time; type: physicochemical; details: equal volumes methanol-aqueous phosphate buffer (pH 8); for remaining at 1 h: read-out: % Compound Remaining after 1 hr; for remaining at 16 h: read-out: % Compound Remaining after 16 hr; for remaining at 48 h: read-out: % Compound Remaining after 48 hr; for remaining at 165 h: read-out: % Compound Remaining after 165 hr; for remaining at 336 h: read-out: % Compound Remaining after 336 hr
Method: Solutions of these compounds were prepared using equal volumes of methanol-aqueous phosphate buffer (pH 8), and decomposition by cleavage of the heterocyclic ring was monitored using ultraviolet absorption changes with time.

[2] = test system: Diaperthe phaseolorum MF 4668; assay: In vitro minimal inhibitory concentration in nutrient agar; type: cell-based
[3] = test system: Verticillium dahliae MF 2416; assay: as above; type: cell-based; details: MF2416
[4] = test system: Botrytis cinerea MF 4803; assay: as above; type: cell-based; details: MF4803
[5] = test system: Helminthosporium oryzae MF 4806; assay: as above; type: cell-based; details: Bipolaris oryzae, MF4806
[6] = test system: Rhizoctonia solani MF 4579; assay: as above; type: cell-based; details: MF4579
[7] = test system: Fusarium oxysporum MF 3413; assay: as above; type: cell-based; details: MF3413
[8] = test system: Cercospora beticola MF 4571; assay: as above; type: cell-based; details: MF4571
[9] = test system: Colletotrichum lagenarium MF 4800; assay: as above; type: cell-based; details: Colletotrichum orbiculare, MF4800
[10] = test system: Sclerotinia sclerotiorum MF 4739; assay: as above; type: cell-based; details: MF4739
[11] = test system: Alternaria citri MF 2970; assay: as above; type: cell-based; details: MF2970
[12] = test system: Thielaviopsis basicola MF 3147; assay: as above; type: cell-based; details: Berkeleyomyces basicola, MF3147
[13] = test system: Phytophthora cambivora MF 3753; assay: as above; type: cell-based
[14] = test system: Aspergillus niger MF 11; assay: as above; type: cell-based; details: MF11
[15] = test system: Monilia nigra MF 3084; assay: as above; type: cell-based; details: Moniliella suaveolens, MF3084
[16] = test system: Cladosporium Fulvum MF 3238; assay: as above; type: cell-based; details: Fulvia fulva
[17] = test system: Penicillium digitatum MF 4590; assay: as above; type: cell-based; details: MF4590
[18] = test system: Helminthosporium maydis MF 4775; assay: as above; type: cell-based; details: Bipolaris maydis, MF4775

| Compound | % Compound Remaining after 0 hr [1] [%] | remaining at 1 h [1] [%] | remaining at 16 h [1] [%] | remaining at 48 h [1] [%] | remaining at 165 h [1] [%] | remaining at 336 h [1] [%] | also measured |
| --- | --- | --- | --- | --- | --- | --- | --- |
| CCCc1nsn(Cc2ccccc2)c1=O | 100 | 100 | 100 | 100 | 90 | 90 |  |
| O=c1cnsn1Cc1ccccc1 | 100 | 100 | 96 | 80 | 50 | 26 |  |
| Cc1nsn(Cc2ccc(Cl)cc2)c1=O [2-[(4-Chlorophenyl)methyl]-4-methyl-1,2,5-thiadiazol-3(2H)-one] |  |  |  |  |  |  | MIC [2]: 0.4 µg/mL (≈ 1.66 µM); MIC [3]: 4 µg/mL (≈ 16.6 µM); MIC [4]: 1 µg/mL (≈ 4.15 µM); MIC [5]: 1 µg/mL (≈ 4.15 µM); MIC [6]: 8 µg/mL (≈ 33.2 µM); MIC [7]: 4 µg/mL (≈ 16.6 µM); MIC [8]: 1 µg/mL (≈ 4.15 µM); MIC [9]: 2 µg/mL (≈ 8.31 µM); MIC [10]: 0.8 µg/mL (≈ 3.32 µM); MIC [11]: 4 µg/mL (≈ 16.6 µM); MIC [12]: 4 µg/mL (≈ 16.6 µM); MIC [13]: 2 µg/mL (≈ 8.31 µM); MIC [14]: 4 µg/mL (≈ 16.6 µM); MIC [15]: 2 µg/mL (≈ 8.31 µM); MIC [16]: 1 µg/mL (≈ 4.15 µM); MIC [17]: 4 µg/mL (≈ 16.6 µM); MIC [18]: 0.4 µg/mL (≈ 1.66 µM) |
| CCCCCCn1snc(C)c1=O [CH3, n-C6 H13, 2-n-Hexyl-4-methyl-1,2,5-thiadiazol-3(2H)-one] | 100 | 100 | 100 | 100 | 100 | 99 |  |
| Cc1nsn(Cc2ccc(Cl)cc2)c1=O [drawing 23] | 100 | 100 | 100 | 97 | 93 | 91 |  |
| O=c1c(Cl)nsn1Cc1ccccc1 [reference compound] | 100 | 48 | 6 | 0 |  |  |  |
| O=c1c(Cl)nsn1Cc1ccc(Cl)cc1 [reference compound] | 100 |  | 0 | 0 |  |  |  |
